Columns and labels:
TRPC5 [1] = system: TRPC5; design: method as in Richter et al., 2014; Zhou et al., 2017; Zhu et al., 2015; conditions: ref Richter et al., 2014; Zhou et al., 2017; Zhu et al., 2015; read-out: IC50 for inhibition of TRPC5; cited from earlier work
TRPC5 [2] = system: TRPC5; design: method as in Minard et al., 2019; conditions: ref Minard et al., 2019; read-out: EC50 as TRPC5 activator; cited from earlier work
[3] = biological target: the molecule itself; experiment: cryo-EM structure; purified hTRPC5(1-764) in GDN micelles with 100 uM Ca2+ plus 500 uM CMZ, 50 uM HC-070 or EA (EA not seen, 'apo'); graphene oxide grids; C4 symmetry imposed in refinement
[4] = biological target: the molecule itself; experiment: SEC; fluorescence-detection SEC (FSEC) of transfected HEK293F cells solubilised in 1% LMNG, 0.1% CHS in TBS (20 mM Tris-HCl pH 8.0, 150 mM NaCl), 4°C; Superose-6 Increase

## c1ccc(Cn2c(NCc3ccco3)nc3ccccc32)cc1 [AC1903]
TRPC5 [1]
  IC50: 14.7 µM

## Cn1c(=O)n(CCCO)c(=O)c2c1nc(Oc1ccc(Cl)c(OC(F)(F)F)c1)n2Cc1ccc(Cl)cc1 [AM237]
TRPC5 [2]
  EC50: 0.015 to 0.02 µM

B1: human TRPC5 residues 1-764 (hTRPC5_(1-764)), purified tetrameric channel (domain or fragment, UniProt Q9UL62 1-764, looked up)
chain: MAQLYYKKVNYSPYRDRIPLQIVRAETELSAEEKAFLNAVEKGDYATVKQALQEAEIYYNVNINCMDPLGRSALLIAIENENLEIMELLLNHSVYVGDALLYAIRKEVVGAVELLLSYRRPSGEKQVPTLMMDTQFSEFTPDITPIMLAAHTNNYEIIKLLVQKRVTIPRPHQIRCNCVECVSSSEVDSLRHSRSRLNIYKALASPSLIALSSEDPILTAFRLGWELKELSKVENEFKAEYEELSQQCKLFAKDLLDQARSSRELEIILNHRDDHSEELDPQKYHDLAKLKVAIKYHQKEFVAQPNCQQLLATLWYDGFPGWRRKHWVVKLLTCMTIGFLFPMLSIAYLISPRSNLGLFIKKPFIKFICHTASYLTFLFMLLLASQHIVRTDLHVQGPPPTVVEWMILPWVLGFIWGEIKEMWDGGFTEYIHDWWNLMDFAMNSLYLATISLKIVAYVKYNGSRPREEWEMWHPTLIAEALFAISNILSSLRLISLFTANSHLGPLQISLGRMLLDILKFLFIYCLVLLAFANGLNQLYFYYETRAIDEPNNCKGIRCEKQNNAFSTLFETLQSLFWSVFGLLNLYVTNVKARHEFTEFVGATMFGTYNVISLVVLLNMLIAMMNNSYQLIADHADIEWKFARTKLWMSYFDEGGTLPPPFNIIPSPKSFLYLGNWFNNTFCPKRDPDGRRRRRNLRSFTERNADSLIQNQHYQEVIRNLVKRYVAAMIRNSKTHEGLTEENFKELKQDISSFRYEVLDLLGNR
notes: human TRPC5 (transient receptor potential canonical 5), C-terminally truncated construct, residues 1-764; That this removes the GFP-MBP tag is surmised; also called apo hTRPC5; source: HEK293F, BacMam baculovirus infection, purified (MBP resin, H3C protease digestion, Superose-6 Increase SEC in GDN); not shown: GFP, N-terminal, cleaved; MBP, N-terminal, cleaved
[3]
  stoichiometry N: 4

B2: GFP-MBP-tagged human TRPC5 residues 1-764 (hTRPC5_(1-764)) as screened by FSEC (domain or fragment, UniProt Q9UL62 1-764, looked up)
chain: B1 chain
notes: human TRPC5 (transient receptor potential canonical 5), C-terminally truncated construct, residues 1-764; Same construct as m1, but uncleaved and unpurified; It is detected by the fluorescence of its GFP tag in FSEC; source: HEK293F, transfected (PEI), solubilised in LMNG/CHS, in supernatant; not shown: GFP, N-terminal, kept; MBP, N-terminal, kept
[4]
  stoichiometry N: 4

Reference: paper PMC7987348, “Structural basis for human TRPC5 channel inhibition by two distinct inhibitors” (eLife, 2021)
